Assay results from patent US8063055B2, “Substituted pyridone compounds and methods of use” (Amgen Inc., priority 2007, dated 2011).
pIC50: −log10 of the molar value. Where two headings read alike, the source gives them in different places.

Tests used:
c-kit kinase enzyme = molecular target: T1, c-kit kinase enzyme (Homo sapiens, UniProt P10721); assay: C-kit Homogeneous Time Resolved Fluorescent (HTRF) kinase assay; format: biochemical
T1 construct: (catalytic domain, N-terminal GST tagged, unphosphorylated)
T1 sequence (P10721 589-937 limits assumed): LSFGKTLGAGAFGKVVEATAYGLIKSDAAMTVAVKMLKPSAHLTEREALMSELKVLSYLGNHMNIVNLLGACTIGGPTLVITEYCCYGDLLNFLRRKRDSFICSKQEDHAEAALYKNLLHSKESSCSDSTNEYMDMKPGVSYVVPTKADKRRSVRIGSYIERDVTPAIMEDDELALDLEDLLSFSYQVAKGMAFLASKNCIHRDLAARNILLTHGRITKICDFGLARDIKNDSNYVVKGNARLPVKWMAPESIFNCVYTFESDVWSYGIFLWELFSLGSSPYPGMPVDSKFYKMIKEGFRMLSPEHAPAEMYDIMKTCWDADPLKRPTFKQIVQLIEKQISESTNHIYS

[1] = test system: SCF-stimulated UT-7 cells; conditions: Homo sapiens
Description: SCF and GM-CSF Stimulated UT7 Proliferation/Survival Assay:
The purpose of this assay is to test the general anti-proliferative/cytotoxic effect of small molecule compounds on SCF or GM-CSF-stimulated UT-7 cells. Preventing SCF stimulated proliferation/survival is consistent with an on-mechanism effect whereas inhibition of GM-CSF driven proliferation/survival is indicative of off-target effects. UT-7 is a factor dependent human megakaryoblastic leukemia cell line that can be grown in either IL-3, GM-CSF, EPO or SCF (these cells have been confirmed to carry wild type c-kit receptor). Cells are maintained in growth media (IMDM, 10% HI-FBS, 1×PGS, 1 ng/mL GM-CSF). […] Small molecule compounds are first diluted in 100% DMSO, then diluted 1:4 in RT assay media. […] The treated cells are incubated in a 37° C. humidified incubator with 5% CO2 for 3 days. The amount of ATP is then measured as a surrogate marker for cell viability. […] The amount of SCF or GM-CSF stimulated viable cells in the presence of compound compared with in the presence of vehicle alone (HI control) is calculated using the formula: % control (POC)=(cpd−average LO)/(average HI−average LO)*100. Data (consisting of POC and inhibitor concentration in μM) is fitted to a 4-parameter equation (y=A+((B−A)/(1+((x/C)^D))), where A is the minimum y (POC) value, B is the maximum y (POC), C is the x (cpd concentration) at the point of inflection and D is the slope factor) using a Levenburg-Marquardt non-linear regression algorithm.

[2] = HTRF Fret enzyme assay data, c-kit catalytic domain, biotinylated Her-2 peptide substrate, ATP
[3] = UT7, 72 h, read-out: UT7 Proliferation cell assay data
[4] = c-kit catalytic domain, biotinylated Her-2 peptide substrate, ATP, read-out: HTRF Fret enzyme assay data

What does the source list for Cc1ccn(-c2ccc(-n3cccc3)cc2)c(=O)c1-c1ccc2nc(N)ncc2c1 [Example 5, 1-(4-(1H-pyrrol-1-yl)phenyl)-3-(2-aminoquinazolin-6-yl)-4-methylpyridin-2(1H)-one]?
pIC50 (c-kit kinase enzyme; [2]): 8.65; pIC50 [1, 3]: 8.32; pIC50 ([1]; UT7, read-out: average IC50 value in the SCF stimulated UT7 proliferation and survival assay): ≥ 6.00

How did the pIC50 (c-kit kinase enzyme; [4]) turn out when Cc1ccc(-n2ccc(C)c(-c3ccc4nc(N)ncc4c3)c2=O)cc1F [Example 6, 3-(2-aminoquinazolin-6-yl)-1-(3-fluoro-4-methylphenyl)-4-methylpyridin-2(1H)-one] was run?
Its pIC50 is 7.40.

What about the pIC50 [1, 3] of the same compound?
Its pIC50 is 7.92.

With Cc1ccn(-c2ccc(-c3ncco3)cc2)c(=O)c1-c1ccc2nc(N)ncc2c1 [Example 7, 3-(2-aminoquinazolin-6-yl)-4-methyl-1-(4-(oxazol-2-yl)phenyl)pyridin-2(1H)-one] as the compound, how does the pIC50 (c-kit kinase enzyme; [2]) read?
Its pIC50 is 7.67.

What about the pIC50 [1, 3] of the same compound?
The pIC50 was 7.81.

What does the source list for Cc1cc(C)cc(-n2ccc(C)c(-c3ccc4nc(N)ncc4c3)c2=O)c1 [Example 8, 3-(2-aminoquinazolin-6-yl)-1-(3,5-dimethylphenyl)-4-methylpyridin-2(1H)-one]?
pIC50 (c-kit kinase enzyme; [2]): 7.79; pIC50 [1, 3]: 7.30

With Cc1ccn(-c2cccc(C#N)c2)c(=O)c1-c1ccc2nc(N)ncc2c1 [Example 9, 3-(3-(2-aminoquinazolin-6-yl)-4-methyl-2-oxopyridin-1(2H)-yl)benzonitrile] as the compound, how does the pIC50 (c-kit kinase enzyme; [2]) read?
Its pIC50 is 7.05.

What about the pIC50 [1, 3] of the same compound?
The pIC50 was 6.97.

Cc1ccn(-c2ccc3[nH]c(C(F)(F)F)nc3c2)c(=O)c1-c1ccc2nc(N)ncc2c1 [Example 10, 3-(2-aminoquinazolin-6-yl)-4-methyl-1-(2-(trifluoromethyl)-1H-benzo[d]imidazol-5-yl)pyridin-2(1H)-one] was tested. Which pIC50 (c-kit kinase enzyme; [2]) did it give?
The pIC50 was 7.46.

And the pIC50 [1, 3]?
The pIC50 was 6.72.

With COc1cc(-n2ccc(C)c(-c3ccc4nc(N)ncc4c3)c2=O)cc(C(F)(F)F)c1 [Example 11, 3-(2-aminoquinazolin-6-yl)-1-(3-methoxy-5-(trifluoromethyl)phenyl)-4-methylpyridin-2(1H)-one] as the compound, how does the pIC50 (c-kit kinase enzyme; [2]) read?
Its pIC50 is 7.95.

And the pIC50 [1, 3]?
Its pIC50 is 7.23.

Cc1ccn(-c2ccc(C(C)(C)C)cc2)c(=O)c1-c1ccc2nc(N)ncc2c1 [Example 12, 3-(2-amino-6-quinazolinyl)-1-(4-(1,1-dimethylethyl)phenyl)-4-methyl-2(1H)-pyridinone] was tested. Which pIC50 (c-kit kinase enzyme; [2]) did it give?
The pIC50 was 8.69.

What about the pIC50 [1, 3] of the same compound?
Its pIC50 is 7.78.

What does the source list for Cc1ccc(-n2ccc(C)c(-c3ccc4nc(N)ncc4c3)c2=O)cc1C [Example 13, 3-(2-amino-6-quinazolinyl)-1-(3,4-dimethylphenyl)-4-methyl-2(1H)-pyridinone]?
pIC50 (c-kit kinase enzyme; [2]): 8.44; pIC50 [1, 3]: 8.27

What does the source list for Cc1ccn(-c2cccc(OC(F)(F)F)c2)c(=O)c1-c1ccc2nc(N)ncc2c1 [Example 14, 3-(2-amino-6-quinazolinyl)-4-methyl-1-(3-((trifluoromethyl)oxy)phenyl)-2(1H)-pyridinone]?
pIC50 (c-kit kinase enzyme; [2]): 8.39; pIC50 [1, 3]: 7.79

Cc1ccn(-c2ccc3c(c2)NCC3(C)C)c(=O)c1-c1ccc2nc(N)ncc2c1 [Example 15, 3-(2-amino-6-quinazolinyl)-1-(3,3-dimethyl-2,3-dihydro-1H-indol-6-yl)-4-methyl-2(1H)-pyridinone] was tested. Which pIC50 (c-kit kinase enzyme; [2]) did it give?
The pIC50 was 8.33.

What about the pIC50 [1, 3] of the same compound?
Its pIC50 is 7.71.

With Cc1ccn(-c2ccc3ncccc3c2)c(=O)c1-c1ccc2nc(N)ncc2c1 [Example 16, 3-(2-amino-6-quinazolinyl)-4-methyl-1-(6-quinolinyl)-2(1H)-pyridinone] as the compound, how does the pIC50 (c-kit kinase enzyme; [2]) read?
Its pIC50 is 8.28.

What about the pIC50 [1, 3] of the same compound?
The pIC50 was 7.25.

How did the pIC50 (c-kit kinase enzyme; [2]) turn out when Cc1ccn(-c2ccc3c(c2)CCO3)c(=O)c1-c1ccc2nc(N)ncc2c1 [Example 17, 3-(2-amino-6-quinazolinyl)-1-(2,3-dihydro-1-benzofuran-5-yl)-4-methyl-2(1H)-pyridinone] was run?
Its pIC50 is 8.12.

And the pIC50 [1, 3]?
Its pIC50 is 7.82.

How did the pIC50 (c-kit kinase enzyme; [2]) turn out when Cc1ccn(-c2ccc3[nH]ccc3c2)c(=O)c1-c1ccc2nc(N)ncc2c1 [Example 18, 3-(2-amino-6-quinazolinyl)-4-methyl-1-(1H-indol-5-yl)-2(1H)-pyridinone] was run?
Its pIC50 is 8.06.

And the pIC50 [1, 3]?
Its pIC50 is 7.54.

With CC(=O)N1CC(C)(C)c2ccc(-n3ccc(C)c(-c4ccc5nc(N)ncc5c4)c3=O)cc21 [Example 19, 1-(1-acetyl-3,3-dimethyl-2,3-dihydro-1H-indol-6-yl)-3-(2-amino-6-quinazolinyl)-4-methyl-2(1H)-pyridinone] as the compound, how does the pIC50 (c-kit kinase enzyme; [2]) read?
Its pIC50 is 8.01.

What about the pIC50 [1, 3] of the same compound?
The pIC50 was 6.65.

How did the pIC50 [1, 3] turn out when Cc1ccn(-c2cccc(C(F)(F)F)c2)c(=O)c1-c1ccc2nc(N)ncc2c1 [Example 20, 3-(2-amino-6-quinazolinyl)-4-methyl-1-(3-(trifluoromethyl)phenyl)-2(1H)-pyridinone] was run?
Its pIC50 is 7.55.

COc1cccc(-n2ccc(C)c(-c3ccc4nc(N)ncc4c3)c2=O)c1 [Example 22, 3-(2-amino-6-quinazolinyl)-4-methyl-1-(3-(methyloxy)phenyl)-2(1H)-pyridinone] was tested. Which pIC50 (c-kit kinase enzyme; [4]) did it give?
The pIC50 was 7.19.

What about the pIC50 [1, 3] of the same compound?
Its pIC50 is 7.56.

Cc1ccn(Cc2ccccc2)c(=O)c1-c1ccc2nc(N)ncc2c1 [Example 24, 3-(2-aminoquinazolin-6-yl)-1-benzyl-4-methylpyridin-2(1H)-one] was tested. Which pIC50 (c-kit kinase enzyme; [2]) did it give?
The pIC50 was 8.22.

What about the pIC50 [1, 3] of the same compound?
The pIC50 was 7.89.

What does the source list for Cc1ccn(CCC(C)C)c(=O)c1-c1ccc2nc(N)ncc2c1 [Example 25, 3-(2-aminoquinazolin-6-yl)-1-isopentyl-4-methylpyridin-2(1H)-one]?
pIC50 (c-kit kinase enzyme; [2]): 7.74; pIC50 [1, 3]: 7.08

What does the source list for Cc1ccn(-c2ccc3c(ccn3-c3ccc4[nH]ccc4c3)c2)c(=O)c1-c1ccc2nc(N)ncc2c1 [Example 26, 3-(2-amino-6-quinazolinyl)-1-(1′H-1,5′-biindol-5-yl)-4-methyl-2(1H)-pyridinone]?
pIC50 (c-kit kinase enzyme; [2]): 8.70; pIC50 [1, 3]: 7.96

Cc1ccn(-c2ccc(C(C)C)cc2)c(=O)c1-c1ccc2nc(N)ncc2c1 [Example 27, 3-(2-aminoquinazolin-6-yl)-1-(4-isopropylphenyl)-4-methylpyridin-2(1H)-one] was tested. Which pIC50 (c-kit kinase enzyme; [2]) did it give?
The pIC50 was 8.70.

And the pIC50 [1, 3]?
Its pIC50 is 8.30.

CC(=O)c1ccc(-n2ccc(C)c(-c3ccc4nc(N)ncc4c3)c2=O)cc1 [Example 28, 1-(4-acetylphenyl)-3-(2-aminoquinazolin-6-yl)-4-methylpyridin-2(1H)-one] was tested. Which pIC50 (c-kit kinase enzyme; [4]) did it give?
Its pIC50 is 7.70.

What does the source list for CCOC(=O)c1ccc(-n2ccc(C)c(-c3ccc4nc(N)ncc4c3)c2=O)cc1 [Example 29, ethyl 4-(3-(2-aminoquinazolin-6-yl)-4-methyl-2-oxopyridin-1(2H)-yl)benzoate]?
pIC50 (c-kit kinase enzyme; [4]): 7.77; pIC50 [1, 3]: 7.18

How did the pIC50 (c-kit kinase enzyme; [2]) turn out when Cc1ccn(-c2ccc(C(F)(F)F)cc2)c(=O)c1-c1ccc2nc(N)ncc2c1 [Example 30, 3-(2-aminoquinazolin-6-yl)-4-methyl-1-(4-(trifluoromethyl)phenyl)pyridin-2(1H)-one] was run?
Its pIC50 is 8.10.

What about the pIC50 [1, 3] of the same compound?
Its pIC50 is 7.74.

COc1ccc(-n2ccc(C)c(-c3ccc4nc(N)ncc4c3)c2=O)cc1 [Example 31, 3-(2-aminoquinazolin-6-yl)-1-(4-methoxyphenyl)-4-methylpyridin-2(1H)-one] was tested. Which pIC50 (c-kit kinase enzyme; [4]) did it give?
The pIC50 was 7.77.

With Cc1ccn(-c2ccc(Cl)cc2)c(=O)c1-c1ccc2nc(N)ncc2c1 [Example 32, 3-(2-aminoquinazolin-6-yl)-1-(4-chlorophenyl)-4-methylpyridin-2(1H)-one] as the compound, how does the pIC50 (c-kit kinase enzyme; [4]) read?
Its pIC50 is 7.70.

What about the pIC50 [1, 3] of the same compound?
The pIC50 was 7.85.

Cc1ccn(-c2ccc(N3CCN(C(=O)OC(C)(C)C)CC3)cc2)c(=O)c1-c1ccc2nc(N)ncc2c1 [Example 36, tert-butyl 4-(4-(3-(2-aminoquinazolin-6-yl)-4-methyl-2-oxopyridin-1(2H)-yl)phenyl)piperazine-1-carboxylate] was tested. Which pIC50 (c-kit kinase enzyme; [2]) did it give?
The pIC50 was 5.86.

How did the pIC50 (c-kit kinase enzyme; [2]) turn out when CCOC(=O)CNc1ccc(-n2ccc(C)c(-c3ccc4nc(N)ncc4c3)c2=O)cc1 [Example 37, ethyl 2-(4-(3-(2-aminoquinazolin-6-yl)-4-methyl-2-oxopyridin-1(2H)-yl)phenylamino)acetate] was run?
The pIC50 was 6.74.

How did the pIC50 (c-kit kinase enzyme; [4]) turn out when Cc1ccn(-c2ccc(Cl)c(F)c2)c(=O)c1-c1ccc2nc(N)ncc2c1 [Example 44, 3-(2-aminoquinazolin-6-yl)-1-(4-chloro-3-fluorophenyl)-4-methylpyridin-2(1H)-one] was run?
Its pIC50 is 7.22.

With Cc1ccn(CC2CCCCC2)c(=O)c1-c1ccc2nc(N)ncc2c1 [Example 47, 3-(2-aminoquinazolin-6-yl)-1-(cyclohexylmethyl)-4-methylpyridin-2(1H)-one] as the compound, how does the pIC50 (c-kit kinase enzyme; [2]) read?
The pIC50 was 6.88.

Cc1ccn(CC2CCC2)c(=O)c1-c1ccc2nc(N)ncc2c1 [Example 48, 3-(2-aminoquinazolin-6-yl)-1-(cyclobutylmethyl)-4-methylpyridin-2(1H)-one] was tested. Which pIC50 (c-kit kinase enzyme; [2]) did it give?
Its pIC50 is 5.85.

With Cc1ccn(CC(C)C)c(=O)c1-c1ccc2nc(N)ncc2c1 [Example 49, 3-(2-aminoquinazolin-6-yl)-1-isobutyl-4-methylpyridin-2(1H)-one] as the compound, how does the pIC50 (c-kit kinase enzyme; [2]) read?
The pIC50 was 5.65.

CCCn1ccc(C)c(-c2ccc3nc(N)ncc3c2)c1=O [Example 50, 3-(2-aminoquinazolin-6-yl)-4-methyl-1-propylpyridin-2(1H)-one] was tested. Which pIC50 (c-kit kinase enzyme; [2]) did it give?
Its pIC50 is 6.50.

What about the pIC50 (c-kit kinase enzyme; average IC50 value, inhibition of the c-kit kinase enzyme in a human HTRF assay, 1.0 uM or less) of the same compound?
The pIC50 was no less than 6.00.

How did the pIC50 (c-kit kinase enzyme; [2]) turn out when COC(=O)Cn1ccc(C)c(-c2ccc3nc(N)ncc3c2)c1=O [Example 51, methyl 2-(3-(2-aminoquinazolin-6-yl)-4-methyl-2-oxopyridin-1(2H)-yl)acetate] was run?
The pIC50 was 5.92.

With CCCCn1ccc(C)c(-c2ccc3nc(N)ncc3c2)c1=O [Example 53, 3-(2-aminoquinazolin-6-yl)-1-butyl-4-methylpyridin-2(1H)-one] as the compound, how does the pIC50 (c-kit kinase enzyme; [2]) read?
Its pIC50 is 6.93.

With Cc1ccn(CCN(C)C)c(=O)c1-c1ccc2nc(N)ncc2c1 [Example 55, 3-(2-aminoquinazolin-6-yl)-1-(2-(dimethylamino)ethyl)-4-methylpyridin-2(1H)-one] as the compound, how does the pIC50 (c-kit kinase enzyme; [2]) read?
The pIC50 was 5.80.

With COCCn1ccc(C)c(-c2ccc3nc(N)ncc3c2)c1=O [Example 56, 3-(2-aminoquinazolin-6-yl)-1-(2-methoxyethyl)-4-methylpyridin-2(1H)-one] as the compound, how does the pIC50 (c-kit kinase enzyme; [2]) read?
Its pIC50 is 5.65.

How did the pIC50 (c-kit kinase enzyme; [2]) turn out when Cc1ccn(CCn2cccn2)c(=O)c1-c1ccc2nc(N)ncc2c1 [Example 60, 1-(2-(1H-pyrazol-1-yl)ethyl)-3-(2-aminoquinazolin-6-yl)-4-methylpyridin-2(1H)-one] was run?
The pIC50 was 6.75.
